According to paper PMC4429609 (Journal of medicinal chemistry, 2012):

Legend:
Assay in all cases: biochemical
CHK2 = CHK2 (Homo sapiens, UniProt O96017); details: read-out: % Inhibition at 1 μM, CHK2
CHK1 = CHK1 (Homo sapiens, UniProt O14757); details: read-out: % Inhibition at 1 μM, CHK1
PLK1 = PLK1 (Homo sapiens, UniProt P53350); details: read-out: % Inhibition at 1 μM, PLK1
ROCK1 = ROCK1 (Homo sapiens, UniProt Q13464); details: read-out: % Inhibition at 1 μM, ROCK1
RET = RET (Homo sapiens, UniProt P07949); details: read-out: % Inhibition at 1 μM, RET
WEE1 = WEE1 (Homo sapiens, UniProt P30291); details: read-out: % Inhibition at 1 μM, WEE1
WEE1, sequence (P30291 whole entry, looked up): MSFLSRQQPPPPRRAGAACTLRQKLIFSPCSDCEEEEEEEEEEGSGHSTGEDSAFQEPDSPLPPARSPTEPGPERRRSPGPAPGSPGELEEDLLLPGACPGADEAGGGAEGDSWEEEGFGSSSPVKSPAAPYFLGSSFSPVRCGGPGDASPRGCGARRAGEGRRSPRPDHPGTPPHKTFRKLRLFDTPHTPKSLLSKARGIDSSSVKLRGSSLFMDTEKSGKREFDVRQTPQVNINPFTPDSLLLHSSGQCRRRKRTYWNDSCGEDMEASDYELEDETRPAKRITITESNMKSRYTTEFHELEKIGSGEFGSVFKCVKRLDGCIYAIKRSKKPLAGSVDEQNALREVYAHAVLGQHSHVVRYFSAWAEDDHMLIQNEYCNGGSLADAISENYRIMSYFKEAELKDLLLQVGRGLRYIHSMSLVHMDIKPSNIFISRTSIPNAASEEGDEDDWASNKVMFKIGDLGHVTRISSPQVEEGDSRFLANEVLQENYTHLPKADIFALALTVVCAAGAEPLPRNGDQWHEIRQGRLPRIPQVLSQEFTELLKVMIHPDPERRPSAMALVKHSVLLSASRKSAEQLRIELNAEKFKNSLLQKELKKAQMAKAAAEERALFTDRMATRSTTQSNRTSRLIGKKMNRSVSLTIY

TRKA = TRKA (Homo sapiens, UniProt P04629); details: read-out: % Inhibition at 1 μM, TRKA
TRKA, sequence (P04629 33-796): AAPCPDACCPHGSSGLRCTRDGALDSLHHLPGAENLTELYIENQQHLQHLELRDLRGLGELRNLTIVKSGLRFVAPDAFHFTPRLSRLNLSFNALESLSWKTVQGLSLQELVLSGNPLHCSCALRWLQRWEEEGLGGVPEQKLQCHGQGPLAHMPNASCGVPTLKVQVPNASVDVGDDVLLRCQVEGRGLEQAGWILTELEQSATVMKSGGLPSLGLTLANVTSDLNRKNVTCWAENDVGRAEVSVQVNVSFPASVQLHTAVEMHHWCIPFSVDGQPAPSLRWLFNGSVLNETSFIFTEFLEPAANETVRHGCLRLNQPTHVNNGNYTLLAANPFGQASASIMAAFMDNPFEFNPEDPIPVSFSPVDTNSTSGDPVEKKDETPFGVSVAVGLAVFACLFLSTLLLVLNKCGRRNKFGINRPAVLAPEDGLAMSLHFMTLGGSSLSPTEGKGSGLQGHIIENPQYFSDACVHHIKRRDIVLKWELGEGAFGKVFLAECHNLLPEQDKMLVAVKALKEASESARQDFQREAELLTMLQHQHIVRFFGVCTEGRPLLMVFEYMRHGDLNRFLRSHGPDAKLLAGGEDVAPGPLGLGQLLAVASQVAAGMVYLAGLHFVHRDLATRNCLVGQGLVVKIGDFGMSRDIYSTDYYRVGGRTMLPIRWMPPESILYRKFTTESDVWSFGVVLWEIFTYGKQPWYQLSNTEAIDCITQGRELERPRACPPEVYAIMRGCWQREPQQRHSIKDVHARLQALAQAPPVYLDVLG

NEK11 = NEK11 (Homo sapiens, UniProt Q8NG66); details: read-out: % Inhibition at 1 μM, NEK11
NEK11, sequence (Q8NG66 whole entry, looked up): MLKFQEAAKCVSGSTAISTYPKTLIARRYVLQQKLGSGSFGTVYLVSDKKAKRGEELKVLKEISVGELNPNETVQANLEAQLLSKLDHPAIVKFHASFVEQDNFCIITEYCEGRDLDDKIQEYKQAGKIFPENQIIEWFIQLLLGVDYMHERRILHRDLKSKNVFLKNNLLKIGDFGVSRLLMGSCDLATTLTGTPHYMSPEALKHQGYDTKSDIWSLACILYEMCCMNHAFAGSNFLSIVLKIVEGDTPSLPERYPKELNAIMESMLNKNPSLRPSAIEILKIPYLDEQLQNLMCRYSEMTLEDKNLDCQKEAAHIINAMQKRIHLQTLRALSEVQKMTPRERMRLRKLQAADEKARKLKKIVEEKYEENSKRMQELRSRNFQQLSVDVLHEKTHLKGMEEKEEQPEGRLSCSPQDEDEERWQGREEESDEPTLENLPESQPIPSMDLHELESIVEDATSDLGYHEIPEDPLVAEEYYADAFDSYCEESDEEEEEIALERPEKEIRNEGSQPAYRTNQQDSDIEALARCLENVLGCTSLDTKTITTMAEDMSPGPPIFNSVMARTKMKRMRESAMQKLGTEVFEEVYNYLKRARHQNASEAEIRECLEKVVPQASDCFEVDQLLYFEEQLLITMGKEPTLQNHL

NEK6 = NEK6 (Homo sapiens, UniProt Q9HC98); details: read-out: % Inhibition at 1 μM, NEK6
CDK2/cyclin A = CDK2/cyclin A (Homo sapiens, UniProt P24941); details: read-out: % Inhibition at 1 μM, CDK2/cyclin A
CDK1/cyclin B = CDK1/cyclin B (Homo sapiens, UniProt P06493); details: read-out: % Inhibition at 1 μM, CDK1/cyclin B
AKT1 = AKT1 (Homo sapiens, UniProt P31749); details: read-out: % Inhibition at 1 μM, AKT1
AKT1, sequence (P31749 whole entry): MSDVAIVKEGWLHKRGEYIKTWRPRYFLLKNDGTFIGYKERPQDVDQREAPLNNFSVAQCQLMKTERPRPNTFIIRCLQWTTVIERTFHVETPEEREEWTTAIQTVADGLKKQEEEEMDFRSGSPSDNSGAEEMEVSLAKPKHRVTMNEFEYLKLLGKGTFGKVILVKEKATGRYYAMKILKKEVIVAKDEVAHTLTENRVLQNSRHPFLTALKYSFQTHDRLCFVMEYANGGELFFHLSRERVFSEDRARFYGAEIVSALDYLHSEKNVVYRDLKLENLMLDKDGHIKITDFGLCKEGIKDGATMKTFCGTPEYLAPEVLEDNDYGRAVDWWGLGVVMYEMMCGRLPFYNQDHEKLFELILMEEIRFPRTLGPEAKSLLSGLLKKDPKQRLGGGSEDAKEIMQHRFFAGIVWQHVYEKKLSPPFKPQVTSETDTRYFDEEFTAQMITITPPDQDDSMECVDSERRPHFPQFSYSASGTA

CHK2, sequence (O96017 whole entry, looked up): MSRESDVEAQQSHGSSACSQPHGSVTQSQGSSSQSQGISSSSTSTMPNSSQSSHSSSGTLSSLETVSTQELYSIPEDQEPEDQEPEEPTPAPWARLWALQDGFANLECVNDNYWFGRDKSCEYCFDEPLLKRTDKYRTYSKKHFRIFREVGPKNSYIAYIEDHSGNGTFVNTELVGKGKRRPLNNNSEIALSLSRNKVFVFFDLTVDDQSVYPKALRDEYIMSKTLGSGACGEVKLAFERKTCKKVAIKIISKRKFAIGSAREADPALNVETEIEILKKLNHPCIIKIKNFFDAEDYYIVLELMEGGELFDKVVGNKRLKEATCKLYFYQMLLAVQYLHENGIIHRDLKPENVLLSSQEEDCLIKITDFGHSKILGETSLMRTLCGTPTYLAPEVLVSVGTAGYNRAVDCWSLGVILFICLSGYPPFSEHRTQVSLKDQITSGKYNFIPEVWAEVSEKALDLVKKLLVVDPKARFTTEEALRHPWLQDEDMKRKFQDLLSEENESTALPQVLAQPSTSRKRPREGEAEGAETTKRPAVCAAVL
PLK1, sequence (P53350 whole entry): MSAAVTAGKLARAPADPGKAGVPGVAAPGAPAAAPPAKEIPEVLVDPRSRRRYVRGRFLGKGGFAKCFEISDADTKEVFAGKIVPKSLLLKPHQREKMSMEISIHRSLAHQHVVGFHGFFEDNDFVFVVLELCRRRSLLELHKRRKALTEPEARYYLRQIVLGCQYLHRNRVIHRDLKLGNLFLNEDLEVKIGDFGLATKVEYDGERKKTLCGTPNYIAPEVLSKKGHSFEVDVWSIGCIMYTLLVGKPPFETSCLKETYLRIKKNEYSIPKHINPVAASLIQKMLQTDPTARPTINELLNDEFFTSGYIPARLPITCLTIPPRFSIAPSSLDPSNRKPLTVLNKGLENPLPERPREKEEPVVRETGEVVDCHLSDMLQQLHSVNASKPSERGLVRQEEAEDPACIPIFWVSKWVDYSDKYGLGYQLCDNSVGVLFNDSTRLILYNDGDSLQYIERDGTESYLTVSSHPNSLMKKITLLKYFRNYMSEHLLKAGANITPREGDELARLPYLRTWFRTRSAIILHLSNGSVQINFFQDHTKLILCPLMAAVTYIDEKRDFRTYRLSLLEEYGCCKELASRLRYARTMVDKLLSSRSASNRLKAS
ROCK1, sequence (Q13464 whole entry, looked up): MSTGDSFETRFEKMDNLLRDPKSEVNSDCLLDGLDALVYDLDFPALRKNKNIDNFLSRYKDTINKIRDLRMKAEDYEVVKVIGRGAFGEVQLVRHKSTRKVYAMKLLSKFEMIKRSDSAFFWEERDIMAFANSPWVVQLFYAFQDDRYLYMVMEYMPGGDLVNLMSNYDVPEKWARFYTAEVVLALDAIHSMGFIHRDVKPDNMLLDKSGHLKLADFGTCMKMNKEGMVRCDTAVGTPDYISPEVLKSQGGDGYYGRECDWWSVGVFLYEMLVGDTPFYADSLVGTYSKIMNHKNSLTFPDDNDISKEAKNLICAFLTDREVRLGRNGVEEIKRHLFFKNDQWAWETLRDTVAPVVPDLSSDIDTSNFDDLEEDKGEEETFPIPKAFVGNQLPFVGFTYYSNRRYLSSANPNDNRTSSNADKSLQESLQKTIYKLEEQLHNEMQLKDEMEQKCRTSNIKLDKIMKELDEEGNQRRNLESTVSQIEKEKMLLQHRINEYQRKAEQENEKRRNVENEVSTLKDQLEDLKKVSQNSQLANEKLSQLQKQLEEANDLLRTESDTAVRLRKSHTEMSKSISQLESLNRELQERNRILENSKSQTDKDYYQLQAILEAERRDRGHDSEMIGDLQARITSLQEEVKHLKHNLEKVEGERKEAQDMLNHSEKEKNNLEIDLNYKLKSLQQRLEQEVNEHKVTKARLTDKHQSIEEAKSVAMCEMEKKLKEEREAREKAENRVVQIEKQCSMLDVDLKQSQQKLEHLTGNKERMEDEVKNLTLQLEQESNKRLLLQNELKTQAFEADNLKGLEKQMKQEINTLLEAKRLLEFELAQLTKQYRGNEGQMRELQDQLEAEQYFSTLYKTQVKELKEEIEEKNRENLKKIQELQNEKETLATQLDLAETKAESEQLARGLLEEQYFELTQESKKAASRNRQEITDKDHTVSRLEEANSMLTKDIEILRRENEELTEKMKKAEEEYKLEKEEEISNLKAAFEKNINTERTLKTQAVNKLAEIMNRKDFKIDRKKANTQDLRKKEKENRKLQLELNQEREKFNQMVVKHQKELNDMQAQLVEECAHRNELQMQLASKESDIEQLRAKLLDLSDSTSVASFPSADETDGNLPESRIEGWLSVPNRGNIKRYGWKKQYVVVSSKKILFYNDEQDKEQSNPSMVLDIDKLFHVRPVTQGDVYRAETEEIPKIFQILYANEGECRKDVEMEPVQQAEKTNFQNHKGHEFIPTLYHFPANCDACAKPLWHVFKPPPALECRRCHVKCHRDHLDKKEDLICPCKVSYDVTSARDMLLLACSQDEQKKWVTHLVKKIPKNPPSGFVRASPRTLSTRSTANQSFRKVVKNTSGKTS

Cc1cc(Nc2cc(N3CCN(C)CC3)nc(Sc3ccc(NC(=O)C4CC4)cc3)n2)n[nH]1 [VX-680]
inhibition at 1 µM (CHK2): 4%
inhibition at 1 µM (CHK1): 16%
inhibition at 1 µM (PLK1): 0%
inhibition at 1 µM (ROCK1): -2%
inhibition at 1 µM (RET): 96%
inhibition at 1 µM (WEE1): 2%
inhibition at 1 µM (TRKA): 95%
inhibition at 1 µM (NEK11): 11%
inhibition at 1 µM (NEK6): -5%
inhibition at 1 µM (CDK2/cyclin A): 7%
inhibition at 1 µM (CDK1/cyclin B): 5%
inhibition at 1 µM (AKT1): 3%
